Measured values published in patent US20240226217A9, “METHOD FOR EXTRACTING AND PURIFYING TOTAL FLAVONOIDS FROM CARTHAMUS TINCTORIUS L. LEAF (TFFCL), AND USE THEREOF” (Shaanxi University of Chinese Medicine, priority 2022, published 2024).

Tested on: mice with CCl4-induced chronic liver injury
Assay: CCl4-induced chronic liver injury in mice
Assay type: in vivo
Settings: 6 weeks
Experimental: SPF-grade male C57BL/6 mice were randomly divided into 5 groups, 12 mice in each group. The groups were a control group, a model group, a silibinin group (positive control group), a TFFCL low-dose group, and a TFFCL high-dose group. In addition to the control group, mice in the model group, positive control group, TFFCL low-dose group, and TFFCL high-dose group were intraperitoneally injected with 20% CCl4 (CCl4: olive oil=1:4, 2 mL/kg); mice in the control group were intraperitoneally injected with an equal amount of olive oil solution. Each group was injected twice a week for 6 weeks. The silibinin and TFFCL were separately suspended in 0.5% CMC-Na solution. The silibinin group, TFFCL-L group (low-dose), and TFFCL-H group (high-dose) were administered silibinin 100 mg/kg, TFFCL 20 mg/kg, and TFFCL 40 mg/kg by gavage, respectively; while the control group and the model group were intragastrically administered the same amount of 0.5% CMC-Na solution. Each group was given continuous intragastric administration once a day for 6 weeks. During the animal feeding, the body weight of mice was monitored and recorded weekly; 16 h after the last administration in the 6th week, blood was collected from the orbit of the mice, the liver and spleen of the mice were weighed and photographed, and wet weights of the liver and spleen were recorded. The organ index was calculated (organ index=organ mass/body mass×100%).

## COc1cc(C2Oc3cc([C@H]4Oc5cc(O)cc(O)c5C(=O)[C@@H]4O)ccc3OC2CO)ccc1O (some centres unmarked) [Positive group, silibinin]
Silibinin 100 mg/kg by gavage once a day
  Liver index: 4.42 ± 0.30 %
Silibinin 100 mg/kg
  Spleen index: 0.35 ± 0.02%
  liver tissue CAT: 262.23 ± 73.45 U/mg
  liver tissue GSH-PX: 7.84 ± 3.75 U/mg
  liver tissue MDA: 1.12 ± 0.28 nmol/mg
  liver tissue SOD: 9.33 ± 2.47 U/mg
  serum ALT: 80.58 ± 18.26 U/L
  serum AST: 226.58 ± 45.39 U/L
  serum IL-1β: 152.13 ± 30.49 pg/mL
  serum IL-6: 81.40 ± 15.12 pg/mL
  serum TNF-α: 252.32 ± 34.16 pg/mL
